Some results are limits rather than exact numbers.

One assay addresses T1, hNLRP3 inflammasome (Homo sapiens, UniProt Q96P20).
T1 construct: endogenous in cells; host or cells: THP-1 cells, PMA-differentiated
Briefly: Agonistic effect on the expression of IL-1β in THP-1 cells after PMA-induced differentiation (HTRF). It counts as cell-based. The note with it: IL-1β level, PMA-differentiated THP-1 cells, 6 hours. In outline: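 THP-1 cells differentiated with 1 μM PMA for 24 h, then replated at 1×10^5 cells/well in RPMI 1640 with 2% FBS. Compounds added for 6 h at 37 °C, 5% CO2. Supernatant IL-1β measured by HTRF; EC50 from four-parameter variable-slope fit.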

The target of the next assay is T2, hTLR8 (Homo sapiens, UniProt Q9NR97).
T2 construct: host or cells: HEK-Blue hTLR8 cells
T2 sequence (Q9NR97 27-1041): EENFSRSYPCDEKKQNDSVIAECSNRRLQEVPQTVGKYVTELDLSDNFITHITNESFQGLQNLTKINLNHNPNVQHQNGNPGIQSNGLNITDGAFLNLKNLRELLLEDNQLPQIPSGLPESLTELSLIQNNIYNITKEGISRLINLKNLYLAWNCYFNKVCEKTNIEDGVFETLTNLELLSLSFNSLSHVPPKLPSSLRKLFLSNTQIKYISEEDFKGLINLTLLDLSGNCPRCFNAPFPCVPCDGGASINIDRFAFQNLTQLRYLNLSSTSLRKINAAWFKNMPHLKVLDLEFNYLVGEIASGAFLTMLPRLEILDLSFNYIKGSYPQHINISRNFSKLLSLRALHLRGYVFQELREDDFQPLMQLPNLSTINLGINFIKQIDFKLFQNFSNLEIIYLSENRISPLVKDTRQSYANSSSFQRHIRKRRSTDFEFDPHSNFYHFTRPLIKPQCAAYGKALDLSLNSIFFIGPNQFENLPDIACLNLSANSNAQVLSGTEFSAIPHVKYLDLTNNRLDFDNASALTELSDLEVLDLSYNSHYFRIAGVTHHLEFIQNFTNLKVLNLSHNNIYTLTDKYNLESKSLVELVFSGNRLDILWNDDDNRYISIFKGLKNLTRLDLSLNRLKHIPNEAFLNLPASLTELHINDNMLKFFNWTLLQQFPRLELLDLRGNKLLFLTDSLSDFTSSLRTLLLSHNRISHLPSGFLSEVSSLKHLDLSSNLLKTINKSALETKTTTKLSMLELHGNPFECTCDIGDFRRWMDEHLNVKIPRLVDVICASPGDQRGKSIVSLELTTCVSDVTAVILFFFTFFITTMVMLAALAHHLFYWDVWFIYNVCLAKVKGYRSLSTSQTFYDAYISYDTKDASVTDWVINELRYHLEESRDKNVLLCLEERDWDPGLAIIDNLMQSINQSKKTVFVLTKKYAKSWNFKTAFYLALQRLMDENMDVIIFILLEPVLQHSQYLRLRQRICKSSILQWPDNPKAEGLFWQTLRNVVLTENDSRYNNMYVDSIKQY
Briefly: Agonistic effect on hTLR8, HEK-Blue hTLR8 cells, alkaline phosphatase secretion. The following applies: 16 hours. It counts as cell-based. In outline: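 HEK-Blue hTLR8 reporter cells were treated with compound (diluted from 10 mM DMSO stock) for 16 h at 37 °C in DMEM/10% FBS. Secreted alkaline phosphatase in supernatant was detected with QUANTI-Blue after 3 h at 37 °C, read at OD620. EC50 came from a four-parameter variable-slope fit.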

T1 sequence (Q96P20 whole entry): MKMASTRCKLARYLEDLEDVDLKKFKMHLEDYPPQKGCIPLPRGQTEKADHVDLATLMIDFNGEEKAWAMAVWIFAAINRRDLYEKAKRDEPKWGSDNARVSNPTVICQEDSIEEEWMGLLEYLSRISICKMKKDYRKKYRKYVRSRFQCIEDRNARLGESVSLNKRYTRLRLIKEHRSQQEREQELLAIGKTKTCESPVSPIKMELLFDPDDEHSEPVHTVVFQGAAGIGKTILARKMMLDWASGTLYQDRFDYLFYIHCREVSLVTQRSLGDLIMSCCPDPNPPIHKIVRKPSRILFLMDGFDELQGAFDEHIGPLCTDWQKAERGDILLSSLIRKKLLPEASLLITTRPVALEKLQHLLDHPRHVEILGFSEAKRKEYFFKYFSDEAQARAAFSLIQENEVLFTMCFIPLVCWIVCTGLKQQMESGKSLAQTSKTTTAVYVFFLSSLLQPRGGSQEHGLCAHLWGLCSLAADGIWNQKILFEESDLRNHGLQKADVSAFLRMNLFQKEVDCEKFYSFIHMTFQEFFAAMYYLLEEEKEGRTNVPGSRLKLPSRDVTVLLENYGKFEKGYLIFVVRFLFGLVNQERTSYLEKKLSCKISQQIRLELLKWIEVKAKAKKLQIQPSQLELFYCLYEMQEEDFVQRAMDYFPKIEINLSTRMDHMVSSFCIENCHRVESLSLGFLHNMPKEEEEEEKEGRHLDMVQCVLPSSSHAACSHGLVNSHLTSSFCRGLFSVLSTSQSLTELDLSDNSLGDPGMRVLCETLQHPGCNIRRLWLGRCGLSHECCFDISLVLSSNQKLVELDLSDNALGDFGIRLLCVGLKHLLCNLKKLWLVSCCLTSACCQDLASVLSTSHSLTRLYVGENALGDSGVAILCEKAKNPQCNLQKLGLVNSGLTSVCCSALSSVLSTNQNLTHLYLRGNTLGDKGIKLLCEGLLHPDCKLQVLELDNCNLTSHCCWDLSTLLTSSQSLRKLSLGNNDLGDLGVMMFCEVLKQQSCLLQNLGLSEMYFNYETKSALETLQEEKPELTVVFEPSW

Regarding `Nc1cc(N[C@H]2CC[C@H](O)CC2)c2sc(-c3ccn[nH]3)cc2n1` [Compound 147, (1R,4R)-4-((5-amino-2-(1H-pyrazol-5-yl)thieno[3,2-b]pyridin-7-yl)amino)cyclohexanol], the results for the EC50 at hNLRP3 inflammasome and at hTLR8 were 0.03 µM and greater than 100000 nM, respectively.
In the same order, the values of `C[C@@H]1CN(c2cc(N)nc3cc(-c4ccn[nH]4)sc23)C[C@@H](C)O1` [Compound 148, 7-((2R,6R)-2,6-dimethylmorpholino)-2-(1H-pyrazol-5-yl)thieno[3,2-b]pyridine-5-amine] are 0.008 µM and greater than 100000 nM.
As for `Cc1noc(C)c1CNc1cc(N)nc2cc(-c3ccn[nH]3)sc12` [Compound 149, N^7-((3,5-dimethylisoxazol-4-yl)methyl)-2-(1H-pyrazol-5-yl)thieno[3,2-b]pyridine-5,7-diamine], the EC50 on hNLRP3 inflammasome is 0.04 µM; at hTLR8, greater than 100000 nM.
As for `Nc1cc(NCCCN2CCCC2=O)c2sc(-c3ccn[nH]3)cc2n1` [Compound 150], the EC50 on hNLRP3 inflammasome was 0.16 µM; on hTLR8, greater than 100000 nM.
On to `Cc1c(-c2cc[nH]n2)sc2c(NCC(C)(C)CO)cc(N)nc12` [Compound 151], for which the EC50 was 3.66 µM at hNLRP3 inflammasome and greater than 100000 nM at hTLR8.
Take `COCCNc1cc(N)nc2c(C)c(-c3cc[nH]n3)sc12` [Compound 152]: the concentration giving a half-maximal response (EC50) at hNLRP3 inflammasome was 2.75 µM; on hTLR8, greater than 100000 nM.

Source of the values: US20220056043A1, “NITROGEN-CONTAINING FUSED CYCLIC COMPOUND, PREPARATION METHOD THEREFOR AND USE THEREOF” (SICHUAN KELUN-BIOTECH BIOPHARMACEUTICAL CO., LTD., priority 2019, published 2022).
